In US20020111274A1, “1-alkyl-3-[1-(substituted phenyl) benzotriazol-6-yl] uracils” (BASF Aktiengesellschaft, priority 2000, published 2002):

Columns and labels:
Parameters in all cases: scale not given here
ABUTH Velvetleaf [1] = experiment: Postemergence herbicidal evaluation, ABUTH; format: in vivo, Abutilon theophrasti, Medic.; settings: postemergence spray, rated about two-three weeks after treatment
Procedure: (§1) In this evaluation, seedling plants are grown in jiffy flats for about two weeks. The test compounds are dispersed in 80/20 acetone/water mixtures containing 1.0% SUN-IT® II, a methylated seed oil, in sufficient quantities to provide the equivalent of about 0.006 kg to 0.400 kg per hectare of active compound when applied to the plants through a spray nozzle operating at 40 psi for a predetermined time. After spraying, the plants are placed on greenhouse benches and are cared for in accordance with conventional greenhouse procedures. Approximately two - three weeks after treatment, the seedling plants are examined and rated according to the rating system set forth below. Where more than one test is involved for a given compound, the data are averaged.

[2] = tested on: IPOHE Morningglory, Ivyleaf; experiment: Postemergence herbicidal evaluation, IPOHE; format: in vivo, Ipomoea hederacea, (L.) Jacq.; settings: postemergence spray, rated about two-three weeks after treatment
Procedure: as §1

[3] = tested on: IPOHE Morningglory, Ivyleaf; experiment: Preemergence herbicidal evaluation, IPOHE; format: in vivo, Ipomoea hederacea, (L.) Jacq.; settings: preemergence
Excerpt: (§2) The preemergence herbicidal activity of the test compounds of the present invention is exemplified by the following tests in which the seeds of a variety of monocotyledonous and dicotyledonous plants are separately mixed with potting soil and planted on top of approximately one inch of soil in separate pint cups. […] The treated cups are then placed on greenhouse benches, watered and cared for in accordance with conventional greenhouse procedures. From four to five weeks after treatment, the tests are terminated and each cup is examined and rated according to the rating system provided in Example 46.

SETVI Foxtail, Green [4] = experiment: Postemergence herbicidal evaluation, SETVI; format: in vivo, Setaria viridis, (L.) Beau; settings: postemergence spray, rated about two-three weeks after treatment
Procedure: as §1

CASOB Sicklepod [5] = experiment: Postemergence herbicidal evaluation, CASOB; format: in vivo, Cassia obtusifolia, L.; settings: postemergence spray, rated about two-three weeks after treatment
Procedure: as §1

ZEAMX Corn, Field [6] = experiment: Postemergence herbicidal evaluation, ZEAMX; format: in vivo, Zea mays, L. (Sammel-Bezeichnung); settings: postemergence spray, rated about two-three weeks after treatment
Procedure: as §1

GALAP Galium [7] = experiment: Postemergence herbicidal evaluation, GALAP; format: in vivo, Galium aparine; settings: postemergence spray, rated about two-three weeks after treatment
Procedure: as §1

ECHOG Barnyardgrass [8] = experiment: Preemergence herbicidal evaluation, ECHOG; format: in vivo, Echinochloa crus-galli, (L.) Beau; settings: preemergence
Excerpt: as §2

ZEAMX Corn, Field [9] = experiment: Preemergence herbicidal evaluation, ZEAMX; format: in vivo, Zea mays, L. (Sammel-Bezeichnung); settings: preemergence
Excerpt: as §2

ABUTH Velvetleaf [10] = experiment: Preemergence herbicidal evaluation, ABUTH; format: in vivo, Abutilon theophrasti, Medic.; settings: preemergence
Excerpt: as §2

GLXMAW Soybean, Williams [11] = experiment: Preemergence herbicidal evaluation, GLXMAW; format: in vivo, Glycine max, (L.) Merr. cv Williams; settings: preemergence
Excerpt: as §2

AMBEL Ragweed, Common [12] = experiment: Postemergence herbicidal evaluation, AMBEL; format: in vivo, Ambrosia artemisifolia, L.; settings: postemergence spray, rated about two-three weeks after treatment
Procedure: as §1

[13] = tested on: TRZAWR Wheat, Winter, cv Riband; experiment: Postemergence herbicidal evaluation, TRZAWR; format: in vivo, Triticum aestivum; settings: postemergence spray, rated about two-three weeks after treatment
Procedure: as §1

[14] = tested on: CHEAL Lambsquarters, Common; experiment: Preemergence herbicidal evaluation, CHEAL; format: in vivo, Chenopodium album, L.; settings: preemergence
Excerpt: as §2

ORYSAT Rice, Tebonnet [15] = experiment: Postemergence herbicidal evaluation, ORYSAT; format: in vivo, Oryza sativa, (L.); settings: postemergence spray, rated about two-three weeks after treatment
Procedure: as §1

ECHOG Barnyardgrass [16] = experiment: Postemergence herbicidal evaluation, ECHOG; format: in vivo, Echinochloa crus-galli, (L.) Beau; settings: postemergence spray, rated about two-three weeks after treatment
Procedure: as §1

[17] = tested on: CHEAL Lambsquarters, Common; experiment: Postemergence herbicidal evaluation, CHEAL; format: in vivo, Chenopodium album, L.; settings: postemergence spray, rated about two-three weeks after treatment
Procedure: as §1

GLXMAW Soybean, Williams [18] = experiment: Postemergence herbicidal evaluation, GLXMAW; format: in vivo, Glycine max, (L.) Merr. cv Williams; settings: postemergence spray, rated about two-three weeks after treatment
Procedure: as §1

ORYSAT Rice, Tebonnet [19] = experiment: Preemergence herbicidal evaluation, ORYSAT; format: in vivo, Oryza sativa, (L.); settings: preemergence
Excerpt: as §2

CASOB Sicklepod [20] = experiment: Preemergence herbicidal evaluation, CASOB; format: in vivo, Cassia obtusifolia, L.; settings: preemergence
Excerpt: as §2

GALAP Galium [21] = experiment: Preemergence herbicidal evaluation, GALAP; format: in vivo, Galium aparine; settings: preemergence
Excerpt: as §2

SETVI Foxtail, Green [22] = experiment: Preemergence herbicidal evaluation, SETVI; format: in vivo, Setaria viridis, (L.) Beau; settings: preemergence
Excerpt: as §2

AMBEL Ragweed, Common [23] = experiment: Preemergence herbicidal evaluation, AMBEL; format: in vivo, Ambrosia artemisifolia, L.; settings: preemergence
Excerpt: as §2

[24] = tested on: TRZAWR Wheat, Winter, cv Riband; experiment: Preemergence herbicidal evaluation, TRZAWR; format: in vivo, Triticum aestivum; settings: preemergence
Excerpt: as §2

## C=CCOc1ccc(C)cc1-n1nnc2cc(F)c(-n3c(=O)cc(C(F)(F)F)n(C)c3=O)cc21 [Example 42]
ABUTH Velvetleaf [1]; 0.008 kg/ha
  Postemergence herbicidal rating ABUTH: 7.0
ABUTH Velvetleaf [1]; 0.016 kg/ha
  Postemergence herbicidal rating ABUTH: 9.0
ABUTH Velvetleaf [1]; 0.032 kg/ha
  Postemergence herbicidal rating ABUTH: 9.0
ABUTH Velvetleaf [1]; 0.062 kg/ha
  Postemergence herbicidal rating ABUTH: 9.0
[2]; 0.008 kg/ha
  Postemergence herbicidal rating IPOHE: 9.0
[2]; 0.016 kg/ha
  Postemergence herbicidal rating IPOHE: 9.0
[2]; 0.032 kg/ha
  Postemergence herbicidal rating IPOHE: 9.0
[2]; 0.062 kg/ha
  Postemergence herbicidal rating IPOHE: 9.0
[3]; rate 0.016 kg/ha
  IPOHE herbicidal rating: 0.0
[3]; rate 0.032 kg/ha
  IPOHE herbicidal rating: 0.0
[3]; rate 0.062 kg/ha
  IPOHE herbicidal rating: 0.0
[3]; rate 0.125 kg/ha
  IPOHE herbicidal rating: 6.0
SETVI Foxtail, Green [4]; 0.008 kg/ha
  Postemergence herbicidal rating SETVI: 0.0
SETVI Foxtail, Green [4]; 0.016 kg/ha
  Postemergence herbicidal rating SETVI: 2.0
SETVI Foxtail, Green [4]; 0.032 kg/ha
  Postemergence herbicidal rating SETVI: 9.0
SETVI Foxtail, Green [4]; 0.062 kg/ha
  Postemergence herbicidal rating SETVI: 9.0
CASOB Sicklepod [5]; 0.008 kg/ha
  Postemergence herbicidal rating CASOB: 0.0
CASOB Sicklepod [5]; 0.016 kg/ha
  Postemergence herbicidal rating CASOB: 0.0
CASOB Sicklepod [5]; 0.032 kg/ha
  Postemergence herbicidal rating CASOB: 4.0
CASOB Sicklepod [5]; 0.062 kg/ha
  Postemergence herbicidal rating CASOB: 4.0
ZEAMX Corn, Field [6]; 0.008 kg/ha
  Postemergence herbicidal rating ZEAMX: 5.0
ZEAMX Corn, Field [6]; 0.016 kg/ha
  Postemergence herbicidal rating ZEAMX: 5.0
ZEAMX Corn, Field [6]; 0.032 kg/ha
  Postemergence herbicidal rating ZEAMX: 4.5
ZEAMX Corn, Field [6]; 0.062 kg/ha
  Postemergence herbicidal rating ZEAMX: 5.0
GALAP Galium [7]; 0.008 kg/ha
  Postemergence herbicidal rating GALAP: 1.0
GALAP Galium [7]; 0.016 kg/ha
  Postemergence herbicidal rating GALAP: 1.0
GALAP Galium [7]; 0.032 kg/ha
  Postemergence herbicidal rating GALAP: 1.0
GALAP Galium [7]; 0.062 kg/ha
  Postemergence herbicidal rating GALAP: 1.0
ECHOG Barnyardgrass [8]; rate 0.016 kg/ha
  ECHCG herbicidal rating: 1.0
ECHOG Barnyardgrass [8]; rate 0.032 kg/ha
  ECHCG herbicidal rating: 3.0
ECHOG Barnyardgrass [8]; rate 0.062 kg/ha
  ECHCG herbicidal rating: 3.0
ECHOG Barnyardgrass [8]; rate 0.125 kg/ha
  ECHCG herbicidal rating: 7.0
ZEAMX Corn, Field [9]; rate 0.016 kg/ha
  ZEAMX herbicidal rating: 0.0
ZEAMX Corn, Field [9]; rate 0.032 kg/ha
  ZEAMX herbicidal rating: 0.0
ZEAMX Corn, Field [9]; rate 0.062 kg/ha
  ZEAMX herbicidal rating: 1.0
ZEAMX Corn, Field [9]; rate 0.125 kg/ha
  ZEAMX herbicidal rating: 4.0
ABUTH Velvetleaf [10]; rate 0.016 kg/ha
  ABUTH herbicidal rating: 7.0
ABUTH Velvetleaf [10]; rate 0.032 kg/ha
  ABUTH herbicidal rating: 9.0
ABUTH Velvetleaf [10]; rate 0.062 kg/ha
  ABUTH herbicidal rating: 9.0
ABUTH Velvetleaf [10]; rate 0.125 kg/ha
  ABUTH herbicidal rating: 9.0
GLXMAW Soybean, Williams [11]; rate 0.016 kg/ha
  GLXMAW herbicidal rating: 0.0
GLXMAW Soybean, Williams [11]; rate 0.032 kg/ha
  GLXMAW herbicidal rating: 3.0
GLXMAW Soybean, Williams [11]; rate 0.062 kg/ha
  GLXMAW herbicidal rating: 3.0
GLXMAW Soybean, Williams [11]; rate 0.125 kg/ha
  GLXMAW herbicidal rating: 5.0
AMBEL Ragweed, Common [12]; 0.008 kg/ha
  Postemergence herbicidal rating AMBEL: 7.0
AMBEL Ragweed, Common [12]; 0.016 kg/ha
  Postemergence herbicidal rating AMBEL: 7.0
AMBEL Ragweed, Common [12]; 0.032 kg/ha
  Postemergence herbicidal rating AMBEL: 7.0
AMBEL Ragweed, Common [12]; 0.062 kg/ha
  Postemergence herbicidal rating AMBEL: 9.0
[13]; 0.008 kg/ha
  Postemergence herbicidal rating TRZAWR: 2.5
[13]; 0.016 kg/ha
  Postemergence herbicidal rating TRZAWR: 2.5
[13]; 0.032 kg/ha
  Postemergence herbicidal rating TRZAWR: 3.0
[13]; 0.062 kg/ha
  Postemergence herbicidal rating TRZAWR: 4.0
[14]; rate 0.016 kg/ha
  CHEAL herbicidal rating: 9.0
[14]; rate 0.032 kg/ha
  CHEAL herbicidal rating: 9.0
[14]; rate 0.062 kg/ha
  CHEAL herbicidal rating: 9.0
[14]; rate 0.125 kg/ha
  CHEAL herbicidal rating: 9.0
ORYSAT Rice, Tebonnet [15]; 0.008 kg/ha
  Postemergence herbicidal rating ORYSAT: 2.0
ORYSAT Rice, Tebonnet [15]; 0.016 kg/ha
  Postemergence herbicidal rating ORYSAT: 2.5
ORYSAT Rice, Tebonnet [15]; 0.032 kg/ha
  Postemergence herbicidal rating ORYSAT: 2.5
ORYSAT Rice, Tebonnet [15]; 0.062 kg/ha
  Postemergence herbicidal rating ORYSAT: 2.5
ECHOG Barnyardgrass [16]; 0.008 kg/ha
  Postemergence herbicidal rating ECHCG: 0.0
ECHOG Barnyardgrass [16]; 0.016 kg/ha
  Postemergence herbicidal rating ECHCG: 1.0
ECHOG Barnyardgrass [16]; 0.032 kg/ha
  Postemergence herbicidal rating ECHCG: 1.0
ECHOG Barnyardgrass [16]; 0.062 kg/ha
  Postemergence herbicidal rating ECHCG: 1.0
[17]; 0.008 kg/ha
  Postemergence herbicidal rating CHEAL: 2.0
[17]; 0.016 kg/ha
  Postemergence herbicidal rating CHEAL: 6.0
[17]; 0.032 kg/ha
  Postemergence herbicidal rating CHEAL: 7.0
[17]; 0.062 kg/ha
  Postemergence herbicidal rating CHEAL: 7.0
GLXMAW Soybean, Williams [18]; 0.008 kg/ha
  Postemergence herbicidal rating GLXMAW: 5.0
GLXMAW Soybean, Williams [18]; 0.016 kg/ha
  Postemergence herbicidal rating GLXMAW: 5.5
GLXMAW Soybean, Williams [18]; 0.032 kg/ha
  Postemergence herbicidal rating GLXMAW: 7.0
GLXMAW Soybean, Williams [18]; 0.062 kg/ha
  Postemergence herbicidal rating GLXMAW: 7.0
ORYSAT Rice, Tebonnet [19]; rate 0.016 kg/ha
  ORYSAT herbicidal rating: 0.0
ORYSAT Rice, Tebonnet [19]; rate 0.032 kg/ha
  ORYSAT herbicidal rating: 0.0
ORYSAT Rice, Tebonnet [19]; rate 0.062 kg/ha
  ORYSAT herbicidal rating: 1.0
ORYSAT Rice, Tebonnet [19]; rate 0.125 kg/ha
  ORYSAT herbicidal rating: 1.0
CASOB Sicklepod [20]; rate 0.016 kg/ha
  CASOB herbicidal rating: 0.0
CASOB Sicklepod [20]; rate 0.032 kg/ha
  CASOB herbicidal rating: 0.0
CASOB Sicklepod [20]; rate 0.062 kg/ha
  CASOB herbicidal rating: 0.0
CASOB Sicklepod [20]; rate 0.125 kg/ha
  CASOB herbicidal rating: 1.0
GALAP Galium [21]; rate 0.016 kg/ha
  GALAP herbicidal rating: 0.0
GALAP Galium [21]; rate 0.032 kg/ha
  GALAP herbicidal rating: 0.0
GALAP Galium [21]; rate 0.062 kg/ha
  GALAP herbicidal rating: 0.0
GALAP Galium [21]; rate 0.125 kg/ha
  GALAP herbicidal rating: 0.0
SETVI Foxtail, Green [22]; rate 0.016 kg/ha
  SETVI herbicidal rating: 3.0
SETVI Foxtail, Green [22]; rate 0.032 kg/ha
  SETVI herbicidal rating: 7.0
SETVI Foxtail, Green [22]; rate 0.062 kg/ha
  SETVI herbicidal rating: 9.0
SETVI Foxtail, Green [22]; rate 0.125 kg/ha
  SETVI herbicidal rating: 9.0
AMBEL Ragweed, Common [23]; rate 0.016 kg/ha
  AMBEL herbicidal rating: 0.0
AMBEL Ragweed, Common [23]; rate 0.032 kg/ha
  AMBEL herbicidal rating: 0.0
AMBEL Ragweed, Common [23]; rate 0.062 kg/ha
  AMBEL herbicidal rating: 1.0
AMBEL Ragweed, Common [23]; rate 0.125 kg/ha
  AMBEL herbicidal rating: 5.0
[24]; rate 0.016 kg/ha
  TRZAWR herbicidal rating: 0.0
[24]; rate 0.032 kg/ha
  TRZAWR herbicidal rating: 0.0
[24]; rate 0.062 kg/ha
  TRZAWR herbicidal rating: 0.0
[24]; rate 0.125 kg/ha
  TRZAWR herbicidal rating: 1.0
